According to patent EP4371976B1, “IONIZABLE LIPIDS AND LIPID NANOPARTICLES CONTAINING THEREOF” (Certest Biotec, S.L., priority 2022, dated 2024):

What was measured:
[1] = Size distribution, polydispersity and Z-potential of LNPs by dynamic light scattering (Malvern Zetasizer); assay type: physicochemical
Method: The LNP solution was then adjusted to a final concentration of mRNA of 100 µg/ml. Size distribution, polydispersity and Z-potential were measured by dynamic light scattering (DLS) using Malvern Zetasizer Advance Lab Blue Label. RNA encapsulation was assessed by Quant-IT® Ribogreen following the manufacturer's instructions.

[2] = RNA encapsulation efficiency of LNPs by Quant-IT Ribogreen; assay type: physicochemical; conditions: for Encaps. efficiency (%): LNPs with luciferase mRNA, ionizable lipid:non-cationic lipid:sterol:PEG-modified lipid 50:10:38.5:1.5, percentage of RNA entrapped in the LNP; for Encaps. efficiency: Table 8, LNP 50:10:38.5:1.5, luciferase mRNA
In short: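 LNPs formed by mixing aqueous mRNA into ethanol lipid solution, diluted 1:1 in Tris, dialysed overnight against Tris with 15% sucrose. Encapsulated mRNA measured by Ribogreen fluorescence per kit protocol; LNPs adjusted to 100 µg/ml final mRNA.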

mice = assay: LNP stability over time: in vivo transfection (total flux) in mice, fresh versus stored at 4 °C; conditions: LNP 50:10:38.5:1.5
Method: Two LNPs comprising: ionizable lipid (Formula I):non-cationic lipid:sterol: PEG-modified lipid
in the ratios 50:10:38.5:1.5 were tested in order to determine their stability. Formulation A comprising VC-LC-0163 as the ionizable lipid was administered to mice and transfection efficiency measured with a fresh preparation in a first experiment, and with a preparation that had been stored for 83 days at T = 4 °C.
Formulation B comprising VC-LC-0263 as the ionizable lipid was administered to mice and transfection efficiency measured with a fresh preparation in a first experiment, and with a preparation that had been stored for 61 days at T = 4 °C.

Female BALB/c mice = assay: Firefly luciferase expression (total flux, IVIS imaging) in mice after injection of mRNA-loaded LNPs; assay type: in vivo; conditions: for Total Flux: Table 8, intramuscular, 5 µg luciferase mRNA in 50 µl, LNP 50:10:38.5:1.5
In short: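 Female BALB/c mice (8-10 weeks) received 5 µg luciferase mRNA intramuscularly in LNPs of ionizable lipid:DSPC:cholesterol:DMG-PEG2000 at 50:10:38.5:1.5 mol%, N:P 5,5:1. From 4 to 72 h, isoflurane-anaesthetized mice were given D-luciferin at 150 mg/kg i.p. IVIS images were taken 10 min later as total flux.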

[3] = Apparent pKa of LNPs comprising the ionizable lipid (Table 6); conditions: standard formulation 50:10:38.5:1.5
HEK293T cells = conditions: reported by Molla et al., cited from earlier work
[4] = LNPs, standard formulation 50:10:38.5:1.5, DLS
[5] = Table 10, VC-LC-0431:DOPE:Cholesterol:DMG-PEG2000 50:10:38.5:1.5

CCCCCCCCCCCCCCCCOC(=O)CCSCCC(NC(=O)C(CCCCCC)CCCCCCCC)C(=O)NCCCn1ccnc1 (stereo not shown) [VC-LC-0263]
P.D.I. [1, 4]: 0.13
Particle size/ Ø (nm) [1, 4]: 188.6 nm
Z Potential (± D.E.) [mV] [1, 4]: -17.30 mV
Encaps. efficiency (%) [2]: 60.70%
Total flux (p·s^-1) (mice; t = 0, fresh preparation): 1.19E+08 p·s^-1
Total flux (p·s^-1) (mice; t = 61 days, stored at 4 °C): 5.07E+07 p·s^-1

CCCCCCCCC(CCCCCC)COC(=O)CCSCCC(NC(=O)C(CCCCCC)CCCCCCCC)C(=O)NC1CCN(C)CC1 (stereo not shown) [VC-LC-0431]
Total Flux (Female BALB/c mice; mice): 9.92E+07 p·s^-1
Total flux (p·s^-1) (Female BALB/c mice; Table 10, mice, VC-LC-0431:DOPE:Cholesterol:DMG-PEG2000 50:10:38.5:1.5): 9.92E+07 p·s^-1
P.D.I. [1, 4]: 0.11
Particle size/ Ø (nm) [1, 4]: 196.6 nm
Z Potential (± D.E.) [mV] [1, 4]: -0.28 mV
P.D.I. [1, 5]: 0.114
Particle size/ Ø (nm) [1, 5]: 196,6 nm
Z Potential (± D.E.) [mV] [1, 5]: -0.281 mV
Apparent pKa [3]: 5.77
Encaps. efficiency (%) [2]: 60.4%
Encaps. efficiency [2]: 60.4%
Encapsulation efficiency (%) [2, 5]: 60.4%

CCCCCCCC/C=C\CCCCCCCCC(=O)CC(CCSSCCCCCCCCCCCC)C(=O)NCCN1CCN(C)CC1 (stereo not shown) [VC-LC-0588]
transfection (luminescence) in vivo (Female BALB/c mice; Figure 2, intramuscular injection, LNP 50:10:38.5:1.5 encapsulating luciferase mRNA): no transfection
transfection efficiency (HEK293T cells; HEK293T cells, without addition of helper lipids): about 95%
toxicity (HEK293T cells; liposomes, in vitro): low toxicity

CCCCCCCCCCC(CCCCCCCC)C(=O)NC(CCSCCC(=O)OCCCCCCCC(C)C)C(=O)NC1CCN(C)CC1 (stereo not shown) [VC-LC-0558]
Total Flux (Female BALB/c mice; mice): 7.9E07 p·s^-1
P.D.I. [1, 4]: 0.11
Particle size/ Ø (nm) [1, 4]: 155.2 nm
Z Potential (± D.E.) [mV] [1, 4]: -6.62 mV
Apparent pKa [3]: 5.95
Encaps. efficiency (%) [2]: 50.58%
Encaps. efficiency [2]: 50.6%
